Results published in patent US8173682B2, “Substituted pyridones as inhibitors of poly(ADP-ribose) polymerase (PARP)” (Aventis Pharmaceuticals Inc., priority 2004, dated 2012).
Counter-ions that a name gives are not always drawn.

Target: T1, recombinant human PARP (PARP1) (Homo sapiens, UniProt P09874)
T1 construct: Full length human PARP (PARP1) is assembled from PCR fragments; His6 tag with TEV site, from the pFastBac-HTb vector (own knowledge of the vector); made in house; host or cells: insect cells, baculovirus (Bac-to-Bac, Gibco-BRL)
Assay: PARP enzyme assay, Method A (radioactivity or 'ELISA' enzyme assay with partially purified enzyme)
Assay type: biochemical
Details: recombinant human PARP preparation, radioactive or ELISA enzyme assay
Excerpt: Two different methods are employed in determining the activity of the compounds of this invention in inhibiting the activity of PARP enzyme, designated as Method A and Method B respectively as set forth below.
Method A: Cloning and Expression, and Partial Purification of Recombinant Human PARP:
Full length human PARP (PARP1) is assembled from PCR fragments of a clone from a human brain cDNA library and two Incyte clones. The PARP gene (3046 bp) is sub-cloned into pFastBac-HTb vector to give PARP-pFastBac-HTb and the sequence of this clone is verified. PARP-pFastBac-HTb is expressed to obtain protein using the Bac-to-Bac expression protocol from Gibco-BRL. The recombinant virus generated is used to scale up the material for purification.
Cell pellets from cell broth of cells expressing PARP are treated with a cocktail of protease inhibitors and lysed by 4 freeze-thaw cycles. The material is suspended in 10 mM HEPES/0.1M NaCl/pH 7.2, stirred, and then centrifuged. A 40%-70% ammonium sulfate cut of protein pellet is obtained from the supernatant. The pellet is solubilized in 10 mM HEPES/pH 7.2 and centrifuged. The supernatant buffer is exchanged to 10 mM HEPES/pH 7.2/0.1M NaCl/25% glycerol by dialysis or with a desalting column. The enzyme preparation is stored at −20° C. until use.
The compounds of this invention are then tested with this enzyme preparation using either the radioactive enzyme assay or by the “ELISA” enzyme assay as set forth below.
Radioactivity Enzyme Assay:
Incorporation of radioactivity from labeled NAD into acid-precipitated protein is measured. The reaction mixture (volume 100 μL or 50 μL, in a test-tube or 96-well plate) contained 100 μg/mL calf thymus DNA (sonicated), 100 μg/mL histones, 100 mM Tris (pH 8.0), 1.0 mM DTT, 10 mM MgCl2, NAD (200 μM, 0.65 microcurie/mL), and varying amounts of enzyme. The reaction was incubated for 10 min at 37° C. or at room temperature for 60 min. The reaction was stopped and protein precipitated by addition of ice-cold trichloroacetic acid (TCA; 10% or 20% aqueous w/v). After brief storage in ice or at 4° C. for 2 hrs, the reaction mixture is filtered under vacuum through a glass fiber filter (2.5 cm disc, or 96-well filter plate). After washing with TCA and ethanol, the filter is dried and counted for tritium CPM after addition of scintillation fluid.
Incorporation of biotin-NAD into histone coated on plate is measured. A 96-well protein-binding EIA plate is coated with histone and blocked with bovine serum albumin. The reaction mixture (50 μL) contained DNA, buffer, enzyme, (test compound), and 250 μM of NAD and 5 μL of biotin-NAD (Trevigen). After reaction at room temperature the wells are washed and treated with Extravidin (Sigma). After incubation and washing color is developed with the peroxidase substrate TMB (Sigma). The TMB reaction is quenched with 2M sulfuric acid and the absorbance at 450 nm is read.

T1 sequence (P09874 whole entry, the tested form may be a part): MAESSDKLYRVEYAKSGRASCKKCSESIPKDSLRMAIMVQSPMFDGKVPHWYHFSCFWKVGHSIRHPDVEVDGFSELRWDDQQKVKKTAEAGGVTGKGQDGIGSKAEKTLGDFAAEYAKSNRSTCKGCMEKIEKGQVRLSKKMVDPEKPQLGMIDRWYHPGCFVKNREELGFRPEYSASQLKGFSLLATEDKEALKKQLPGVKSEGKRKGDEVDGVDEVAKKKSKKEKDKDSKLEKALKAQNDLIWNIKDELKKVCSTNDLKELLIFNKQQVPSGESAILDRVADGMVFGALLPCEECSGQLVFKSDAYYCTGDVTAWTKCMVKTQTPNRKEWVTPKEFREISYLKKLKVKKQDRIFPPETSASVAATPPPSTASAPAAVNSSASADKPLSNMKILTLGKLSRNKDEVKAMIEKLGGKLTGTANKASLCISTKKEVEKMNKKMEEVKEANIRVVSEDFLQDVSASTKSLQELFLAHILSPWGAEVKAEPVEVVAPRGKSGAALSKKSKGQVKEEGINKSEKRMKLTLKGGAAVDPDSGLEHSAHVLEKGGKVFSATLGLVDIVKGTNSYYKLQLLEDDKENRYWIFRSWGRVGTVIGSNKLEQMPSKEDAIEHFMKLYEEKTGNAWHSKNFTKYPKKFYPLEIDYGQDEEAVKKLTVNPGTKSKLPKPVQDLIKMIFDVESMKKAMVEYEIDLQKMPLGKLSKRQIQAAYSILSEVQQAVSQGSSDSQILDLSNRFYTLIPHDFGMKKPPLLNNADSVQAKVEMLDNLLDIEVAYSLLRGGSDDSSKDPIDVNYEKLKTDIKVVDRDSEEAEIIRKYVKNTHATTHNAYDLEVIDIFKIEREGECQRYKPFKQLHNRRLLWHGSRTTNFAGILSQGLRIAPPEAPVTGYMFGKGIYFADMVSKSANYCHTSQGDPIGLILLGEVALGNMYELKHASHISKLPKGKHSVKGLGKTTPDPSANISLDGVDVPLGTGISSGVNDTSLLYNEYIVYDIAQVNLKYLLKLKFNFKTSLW

Molecule | IC50 [µM]
CCc1cc(-c2ccc(S(=O)(=O)NCc3ccc(C)o3)s2)c(C)[nH]c1=O [Example 35, 5-(5-Ethyl-2-methyl-6-oxo-1,6-dihydropyridin-3-yl)thiophene-2-sulfonic acid (5-methylfuran-2-yl)methylamide] | 10.9
CCc1cc(-c2ccc(S(=O)(=O)NCCN3CCOCC3)o2)c(C)[nH]c1=O [Example 47, 5-(5-Ethyl-2-methyl-6-oxo-1,6-dihydropyridin-3-yl)furan-2-sulfonic acid (2-morpholin-4-yl)ethylamide hydrochloride] | 0.89
CCc1cc(-c2ccc(S(=O)(=O)NCCOC)s2)c(C)[nH]c1=O [Example 33, 5-(5-Ethyl-2-methyl-6-oxo-1,6-dihydropyridin-3-yl)thiophene-2-sulfonic acid (2-methoxyethyl)amide] | 10.5
CCc1cc(-c2ccc(CNC3CC3)s2)c(C)[nH]c1=O [Example 142, 5-(5-Cyclopropylaminomethyl-thiophen-2-yl)-3-ethyl-6-methyl-1H-pyridin-2-one hydrochloride] | 2.1
5-(5-Ethyl-2-methyl-6-oxo-1,6-dihydropyridin-3-yl)thiophene-2-sulfonic acid (2-1′-[5-(5-ethyl-2-methyl-6-oxo-1,6-dihydropyridin-3-yl)thiophene-2-sulfonyl]-1H-imidazol-4-yl}ethyl)amide hydrochloride [Example 40] | 0.13
CCc1cc(-c2ccc(S(=O)(=O)N3CCC(n4ccnc4)CC3)s2)c(C)[nH]c1=O [Example 79, 3-Ethyl-5-[5-(4-imidazol-1-yl)piperidine-1-sulfonyl)thiophen-2-yl]-6-methyl-1H-pyridin-2-one hydrochloride] | 0.45
CCc1cc(-c2ccc(CNC3CCN(Cc4ccccc4)C3)s2)c(C)[nH]c1=O (stereo not drawn) [Example 159, 5-{5-[(1-Benzyl-pyrrolidin-3-ylamino)-methyl]-thiophen-2-yl}-3-ethyl-6-methyl-1H-pyridin-2-one dihydrochloride] | 0.72

The remaining lines, values ahead:

IC50 [µM] | Molecule
0.77 | CCc1cc(-c2ccc(S(=O)(=O)NCCN3CCOCC3)s2)c(C)[nH]c1=O [Example 38, 5-(5-Ethyl-2-methyl-6-oxo-1,6-dihydropyridin-3-yl)thiophene-2-sulfonic acid (2-morpholin-4-yl)ethylamide hydrochloride]
0.45 | CCc1cc(-c2ccc(S(=O)(=O)N3CCN(c4ccccn4)CC3)s2)c(C)[nH]c1=O [Example 116, 3-Ethyl-6-methyl-5-{5-[(4-pyridin-2-yl)piperazine-1-sulfonyl]thiophen-2-yl}-1H-pyridin-2-one hydrochloride]
0.4 | CCc1cc(-c2cccc(C#N)c2)c(C)[nH]c1=O [Example 1, 3-(5-Ethyl-2-methyl-6-oxo-1,6-dihydropyridin-3-yl)benzonitrile]
0.41 | CCc1cc(-c2ccc(CNC3CCCC3)s2)c(C)[nH]c1=O [Example 189, 5-(5-Cyclopentylaminomethylthiophen-2-yl)-3-ethyl-6-methyl-1H-pyridin-2-one hydrochloride]
0.98 | CCc1cc(-c2ccc(CNCc3cccc(C)c3)s2)c(C)[nH]c1=O [Example 165, 5-{5-[(3-Methylbenzylamino)methyl]thiophen-2-y}]-3-ethyl-6-methyl-1H-pyridin-2-one hydrochloride]
0.41 | CCc1cc(-c2ccc(S(=O)(=O)NCCOc3ccccc3)s2)c(C)[nH]c1=O [Example 98, 5-(5-Ethyl-2-methyl-6-oxo-1,6-dihydropyridin-3-yl)-thiophene-2-sulfonic acid (2-phenoxyethyl)amide]
0.23 | CCc1cc(-c2nc(C)no2)c(C)[nH]c1=O [Example 19, 3-Ethyl-6-methyl-5-(3-methyl-1,2,4-oxadiazol-5-yl)-1H-pyridin-2-one]
0.47 | CCc1cc(-c2ccc(CN3CCCC(CO)C3)s2)c(C)[nH]c1=O (stereo not drawn) [Example 131, 3-Ethyl-5-[5-(3-hydroxymethyl-piperidin-1-ylmethyl)-thiophen-2-yl]-6-methyl-1H-pyridin-2-one hydrochloride]
